Where “and” joins values, the source holds several entries; their conditions need not be identical. Equal values may be shown once.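 Growth conditions: 96-well plates. Treatment: test compound, 48 hours, 5 concentrations. Analysis: linear interpolation between bracketing concentrations; unreached endpoints set to highest concentration. GI50 marks 50% less growth.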 Calls of active or inactive are those of the source. Rule as the data show it: active = GI50 up to about 1.1 µM and inactive = higher.
Assays:
Experiment in all cases: NCI tumour cell line growth inhibition, 48 h
HL-60 = test system: HL-60
MOLT-4 = test system: MOLT-4
UACC-257 = test system: UACC-257
K562 = test system: K562
KM-20L2 = test system: KM-20L2
SN12C = test system: SN12C
SK-MEL-2 = test system: SK-MEL-2
NCI-H226 = test system: NCI-H226
SR = test system: SR
DLD-1 = test system: DLD-1
SW-620 = test system: SW-620
DMS-273 = test system: DMS-273
M14 = test system: M14
RPMI-8226 = test system: RPMI-8226
UACC-62 = test system: UACC-62
SK-OV-3 = test system: SK-OV-3
OVCAR-5 = test system: OVCAR-5
COLO 205 = test system: COLO 205
M19-MEL = test system: M19-MEL
KM12 = test system: KM12
U-251 = test system: U-251
NCI-H23 = test system: NCI-H23
UO-31 = test system: UO-31
NCI-H460 = test system: NCI-H460
OVCAR-3 = test system: OVCAR-3
CAKI-1 = test system: CAKI-1
SNB-19 = test system: SNB-19
OVCAR-4 = test system: OVCAR-4
SF-268 = test system: SF-268
HCC 2998 = test system: HCC 2998
HCT-15 = test system: HCT-15
NCI-H522 = test system: NCI-H522
SK-MEL-28 = test system: SK-MEL-28
ACHN = test system: ACHN
HOP-62 = test system: HOP-62
LXFL 529 = test system: LXFL 529
A549 = test system: A549
RXF 393 = test system: RXF 393
SNB-75 = test system: SNB-75
CCRF-CEM = test system: CCRF-CEM
TK-10 = test system: TK-10
SF-295 = test system: SF-295
OVCAR-8 = test system: OVCAR-8
HOP-92 = test system: HOP-92
786-0 = test system: 786-0
LOX IMVI = test system: LOX IMVI
IGROV-1 = test system: IGROV-1
Malme-3M = test system: Malme-3M
SF-539 = test system: SF-539
HT-29 = test system: HT-29
DU-145 = test system: DU-145
T47D = test system: T47D
PC-3 = test system: PC-3
BT-549 = test system: BT-549
SK-MEL-5 = test system: SK-MEL-5
MDA-MB-231 = test system: MDA-MB-231
NCI/ADR-RES = test system: NCI/ADR-RES
MDA-N = test system: MDA-N
HCT-116 = test system: HCT-116
Hs-578T = test system: Hs-578T
SNB-78 = test system: SNB-78
MDA-MB-435 = test system: MDA-MB-435
EKVX = test system: EKVX
MCF7 = test system: MCF7
A498 = test system: A498

Compound: C/C(=N/O)C1CC=C(S(=O)(=O)c2ccccc2)C1 (configuration not stated)
- GI50 (HL-60): > 100 µM (inactive)
- GI50 (MOLT-4): > 100 µM (inactive)
- GI50 (UACC-257): > 100 µM (inactive)
- GI50 (K562): > 100 µM (inactive)
- GI50 (KM-20L2): > 100 µM (inactive)
- GI50 (SN12C): > 100 µM (inactive)
- GI50 (SK-MEL-2): > 100 µM (inactive)
- GI50 (NCI-H226): > 100 µM (inactive)
- GI50 (SR): > 100 µM (inactive)
- GI50 (DLD-1): > 100 µM (inactive)
- GI50 (SW-620): > 100 µM (inactive)
- GI50 (DMS-273): > 100 µM (inactive)
- GI50 (M14): > 100 µM (inactive)
- GI50 (RPMI-8226): > 100 µM (inactive)
- GI50 (UACC-62): > 10 µM (inactive)
- GI50 (SK-OV-3): > 100 µM (inactive)
- GI50 (OVCAR-5): > 100 µM (inactive)
- GI50 (COLO 205): > 100 µM (inactive)
- GI50 (M19-MEL): > 100 µM (inactive)
- GI50 (KM12): > 100 µM (inactive)
- GI50 (U-251): > 100 µM (inactive)
- GI50 (NCI-H23): > 100 µM (inactive)
- GI50 (UO-31): > 100 µM (inactive)
- GI50 (NCI-H460): > 100 µM (inactive)
- GI50 (OVCAR-3): > 100 µM (inactive)
- GI50 (CAKI-1): > 100 µM (inactive)
- GI50 (SNB-19): > 100 µM (inactive)
- GI50 (OVCAR-4): > 100 µM (inactive)
- GI50 (SF-268): > 100 µM (inactive)
- GI50 (HCC 2998): > 100 µM (inactive)
- GI50 (HCT-15): > 100 µM
- GI50 (NCI-H522): > 100 µM (inactive)
- GI50 (SK-MEL-28): > 100 µM (inactive)
- GI50 (ACHN): > 100 µM (inactive)
- GI50 (HOP-62): > 100 µM (inactive)
- GI50 (LXFL 529): > 100 µM (inactive)
- GI50 (A549): > 100 µM (inactive)
- GI50 (RXF 393): > 100 µM (inactive)
- GI50 (SNB-75): > 100 µM (inactive)
- GI50 (CCRF-CEM): > 100 µM (inactive)
- GI50 (TK-10): > 100 µM (inactive)
- GI50 (SF-295): > 100 µM (inactive)
- GI50 (OVCAR-8): > 100 µM (inactive)
- GI50 (HOP-92): > 100 µM (inactive)
- GI50 (786-0): > 100 µM (inactive)
- GI50 (LOX IMVI): > 100 µM (inactive)
- GI50 (IGROV-1): > 100 µM (inactive)
- GI50 (Malme-3M): > 100 µM (inactive)
- GI50 (SF-539): > 100 µM (inactive)
- GI50 (HT-29): > 100 µM (inactive)

Compound: COc1ccc(-c2nc(SC)n(C3OC(COC(C)=O)C(OC(C)=O)C(OC(C)=O)C3OC(C)=O)c(=O)c2C#N)cc1 (configuration not stated)
- GI50 (HL-60): > 100 µM (inactive)
- GI50 (MOLT-4): 68.4 µM (inactive)
- GI50 (UACC-257): > 100 µM (inactive)
- GI50 (K562): > 100 µM (inactive)
- GI50 (KM-20L2): 95.5 µM (inactive)
- GI50 (DU-145): > 100 µM (inactive)
- GI50 (SN12C): 39.7 µM (inactive)
- GI50 (SK-MEL-2): > 100 µM (inactive) and 73.3 µM (inactive)
- GI50 (T47D): 95.7 µM (inactive)
- GI50 (NCI-H226): > 100 µM (inactive)
- GI50 (SR): > 100 µM (inactive)
- GI50 (SW-620): > 100 µM (inactive)
- GI50 (M14): 58.1 µM (inactive)
- GI50 (PC-3): > 100 µM (inactive)
- GI50 (BT-549): > 100 µM (inactive)
- GI50 (SK-MEL-5): > 100 µM (inactive)
- GI50 (MDA-MB-231): > 100 µM (inactive)
- GI50 (COLO 205): > 100 µM (inactive)
- GI50 (NCI/ADR-RES): 79.8 µM (inactive)
- GI50 (MDA-N): > 100 µM (inactive)
- GI50 (KM12): > 100 µM (inactive)
- GI50 (U-251): 34.7 µM (inactive) and 39.5 µM (inactive)
- GI50 (HCT-116): > 100 µM (inactive) and 91.2 µM (inactive)
- GI50 (UO-31): 27 µM (inactive) and 25.6 µM (inactive)
- GI50 (Hs-578T): 34.9 µM (inactive)
- GI50 (CAKI-1): > 100 µM (inactive)
- GI50 (HCC 2998): > 100 µM (inactive)
- GI50 (HCT-15): > 100 µM
- GI50 (SNB-78): 21 µM (inactive)
- GI50 (SK-MEL-28): > 100 µM (inactive) and 72.1 µM (inactive)
- GI50 (MDA-MB-435): > 100 µM (inactive)
- GI50 (LXFL 529): 35.2 µM (inactive)
- GI50 (A549): 59 µM (inactive)
- GI50 (CCRF-CEM): > 100 µM (inactive)
- GI50 (TK-10): > 100 µM (inactive)
- GI50 (OVCAR-8): 79.3 µM (inactive)
- GI50 (EKVX): > 100 µM (inactive)
- GI50 (786-0): 64.3 µM (inactive)
- GI50 (LOX IMVI): 56.4 µM (inactive)
- GI50 (MCF7): > 100 µM (inactive)
- GI50 (IGROV-1): > 100 µM (inactive)
- GI50 (Malme-3M): 65.6 µM (inactive)
- GI50 (HT-29): > 100 µM (inactive)

Compound: COc1ccc(NC(=S)N/N=C2\C(=O)Nc3ccccc32)cc1
- GI50 (HL-60): 2.49 µM (inactive)
- GI50 (MOLT-4): 4.93 µM (inactive)
- GI50 (UACC-257): 47 µM (inactive)
- GI50 (K562): 5.69 µM (inactive)
- GI50 (DU-145): 13.6 µM (inactive)
- GI50 (SN12C): 40.4 µM (inactive)
- GI50 (SK-MEL-2): 40.1 µM (inactive)
- GI50 (T47D): 7.98 µM (inactive)
- GI50 (NCI-H226): 8.97 µM (inactive)
- GI50 (SR): 8.51 µM (inactive)
- GI50 (SW-620): 6.28 µM (inactive)
- GI50 (M14): 21.9 µM (inactive)
- GI50 (RPMI-8226): 31.4 µM (inactive)
- GI50 (PC-3): 19.2 µM (inactive)
- GI50 (UACC-62): 6.24 µM (inactive)
- GI50 (BT-549): 4.74 µM (inactive)
- GI50 (SK-OV-3): 20.8 µM (inactive)
- GI50 (SK-MEL-5): 9.27 µM (inactive)
- GI50 (OVCAR-5): 65 µM (inactive)
- GI50 (MDA-MB-231): 30.9 µM (inactive)
- GI50 (COLO 205): 6.52 µM (inactive)
- GI50 (NCI/ADR-RES): 2.07 µM (inactive)
- GI50 (MDA-N): 55.6 µM (inactive)
- GI50 (KM12): 13 µM (inactive)
- GI50 (U-251): 5.22 µM (inactive)
- GI50 (NCI-H23): 14.7 µM (inactive)
- GI50 (HCT-116): 5.14 µM (inactive)
- GI50 (UO-31): 5.18 µM (inactive)
- GI50 (NCI-H460): 3.13 µM (inactive)
- GI50 (Hs-578T): 29.2 µM (inactive)
- GI50 (OVCAR-3): 28.8 µM (inactive)
- GI50 (CAKI-1): 5.11 µM (inactive)
- GI50 (SNB-19): 41.7 µM (inactive)
- GI50 (OVCAR-4): 9.77 µM (inactive)
- GI50 (SF-268): 17.5 µM (inactive)
- GI50 (HCC 2998): 27.2 µM (inactive)
- GI50 (HCT-15): 0.984 µM
- GI50 (NCI-H522): 18.7 µM (inactive)
- GI50 (SK-MEL-28): 43.1 µM (inactive)
- GI50 (ACHN): 6.5 µM (inactive)
- GI50 (HOP-62): 12.2 µM (inactive)
- GI50 (MDA-MB-435): 52.2 µM (inactive)
- GI50 (A549): 5.52 µM (inactive)
- GI50 (RXF 393): 9.27 µM (inactive)
- GI50 (SNB-75): 48 µM (inactive)
- GI50 (CCRF-CEM): 2.43 µM (inactive)
- GI50 (TK-10): 22 µM (inactive)
- GI50 (SF-295): 3.47 µM (inactive)
- GI50 (OVCAR-8): 7.55 µM (inactive)
- GI50 (EKVX): 9.14 µM (inactive)
- GI50 (HOP-92): 44 µM (inactive)
- GI50 (786-0): 7.55 µM (inactive)
- GI50 (LOX IMVI): 2.92 µM (inactive)
- GI50 (MCF7): 9.48 µM (inactive)
- GI50 (IGROV-1): 4.83 µM (inactive)
- GI50 (Malme-3M): 12.9 µM (inactive)
- GI50 (SF-539): 6.41 µM (inactive)
- GI50 (A498): 40.6 µM (inactive)
- GI50 (HT-29): 7.96 µM (inactive)
